This note sets out measurements from US20260250322A1, “NEW PEPTIDES AS SELECTIVE IL-23 RECEPTOR INHIBITORS” (SANOFI, priority 2023, published 2026).

T1: IL-23 receptor on the surface of HEK-Blue IL-23 cells (UniProt Q5VWK5 24-629, limits assumed)
T1 sequence (looked up): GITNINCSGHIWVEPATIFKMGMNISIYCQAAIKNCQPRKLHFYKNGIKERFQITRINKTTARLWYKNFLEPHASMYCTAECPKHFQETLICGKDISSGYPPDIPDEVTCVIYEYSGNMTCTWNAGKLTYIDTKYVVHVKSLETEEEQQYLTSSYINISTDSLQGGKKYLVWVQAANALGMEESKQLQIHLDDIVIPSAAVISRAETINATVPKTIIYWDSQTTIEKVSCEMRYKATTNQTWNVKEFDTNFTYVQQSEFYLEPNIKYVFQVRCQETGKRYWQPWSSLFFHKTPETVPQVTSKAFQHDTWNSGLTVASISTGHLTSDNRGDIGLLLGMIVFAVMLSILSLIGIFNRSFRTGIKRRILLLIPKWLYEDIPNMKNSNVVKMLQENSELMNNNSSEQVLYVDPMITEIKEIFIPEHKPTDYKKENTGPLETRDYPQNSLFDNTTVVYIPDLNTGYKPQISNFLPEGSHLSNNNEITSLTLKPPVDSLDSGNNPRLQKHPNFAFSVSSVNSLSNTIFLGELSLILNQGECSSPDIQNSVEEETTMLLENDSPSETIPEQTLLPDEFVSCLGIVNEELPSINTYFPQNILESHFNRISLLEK

B1: peptide compound SEQ ID NO: 5 (peptide)
peptide: Ac-[dK]NTWQR[Tyr(Me)][2Nal][Aib]ENN-NH2
modifications: lactam 1-10
SMILES: COc1ccc(C[C@@H]2NC(=O)[C@H](CCCNC(=N)N)NC(=O)[C@H](CCC(N)=O)NC(=O)[C@H](Cc3c[nH]c4ccccc34)NC(=O)[C@H]([C@@H](C)O)NC(=O)[C@H](CC(N)=O)NC(=O)[C@H](NC(C)=O)CCCCNC(=O)CC[C@@H](C(=O)N[C@@H](CC(N)=O)C(=O)N[C@@H](CC(N)=O)C(N)=O)NC(=O)C(C)(C)NC(=O)[C@H](Cc3ccc4ccccc4c3)NC2=O)cc1
B2: peptide compound SEQ ID NO: 8 (peptide)
peptide: Ac-[dK]NTWQA[Tyr(Me)][1Nal][Aib]DNN-NH2
modifications: lactam 1-10
SMILES: COc1ccc(C[C@@H]2NC(=O)[C@H](C)NC(=O)[C@H](CCC(N)=O)NC(=O)[C@H](Cc3c[nH]c4ccccc34)NC(=O)[C@H]([C@@H](C)O)NC(=O)[C@H](CC(N)=O)NC(=O)[C@H](NC(C)=O)CCCCNC(=O)C[C@@H](C(=O)N[C@@H](CC(N)=O)C(=O)N[C@@H](CC(N)=O)C(N)=O)NC(=O)C(C)(C)NC(=O)[C@H](Cc3cccc4ccccc34)NC2=O)cc1
B3: peptide compound SEQ ID NO: 41 (peptide)
peptide: Ac-KNTWQR[Tyr(Me)][2Nal][Thp]DNN-NH2
modifications: lactam 1-10
SMILES: COc1ccc(C[C@@H]2NC(=O)[C@H](CCCNC(=N)N)NC(=O)[C@H](CCC(N)=O)NC(=O)[C@H](Cc3c[nH]c4ccccc34)NC(=O)[C@H]([C@@H](C)O)NC(=O)[C@H](CC(N)=O)NC(=O)[C@@H](NC(C)=O)CCCCNC(=O)C[C@@H](C(=O)N[C@@H](CC(N)=O)C(=O)N[C@@H](CC(N)=O)C(N)=O)NC(=O)C3(CCOCC3)NC(=O)[C@H](Cc3ccc4ccccc4c3)NC2=O)cc1
B4: peptide compound SEQ ID NO: 7 (peptide)
peptide: Ac-[dK]NTWQL[Tyr(Me)][1Nal][Aib]DNN-NH2
modifications: lactam 1-10
SMILES: COc1ccc(C[C@@H]2NC(=O)[C@H](CC(C)C)NC(=O)[C@H](CCC(N)=O)NC(=O)[C@H](Cc3c[nH]c4ccccc34)NC(=O)[C@H]([C@@H](C)O)NC(=O)[C@H](CC(N)=O)NC(=O)[C@H](NC(C)=O)CCCCNC(=O)C[C@@H](C(=O)N[C@@H](CC(N)=O)C(=O)N[C@@H](CC(N)=O)C(N)=O)NC(=O)C(C)(C)NC(=O)[C@H](Cc3cccc4ccccc34)NC2=O)cc1
B5: peptide compound SEQ ID NO: 6 (peptide)
peptide: Ac-DNTWQR[Tyr(Me)][2Nal][Aib][Orn]NN-NH2
modifications: lactam 1-10
SMILES: COc1ccc(C[C@@H]2NC(=O)[C@H](CCCNC(=N)N)NC(=O)[C@H](CCC(N)=O)NC(=O)[C@H](Cc3c[nH]c4ccccc34)NC(=O)[C@H]([C@@H](C)O)NC(=O)[C@H](CC(N)=O)NC(=O)[C@@H](NC(C)=O)CC(=O)NCCC[C@@H](C(=O)N[C@@H](CC(N)=O)C(=O)N[C@@H](CC(N)=O)C(N)=O)NC(=O)C(C)(C)NC(=O)[C@H](Cc3ccc4ccccc4c3)NC2=O)cc1

Numbered stars: 1 amine (or outer) side, 2 acyl side, 3 side chain; on linkers, the order of the positions; unused ones are H or OH. Bridge positions count the residues as written; N and C are the ends. Square brackets hold non-standard residues; d marks the D form. Peptide text beside a SMILES is read from it. Tyr(Me) = Yme = 4-methoxy-L-phenylalanine (O-methyl-tyrosine), COc1ccc(C[C@H](N[*:1])C(=O)[*:2])cc1; 1Nal = N[C@@H](Cc1cccc2ccccc12)C(=O)O; 2Nal = N[C@@H](Cc1ccc2ccccc2c1)C(=O)O; AEF = NCCOc1ccc(C[C@H](N)C(=O)O)cc1; Orn = NCCC[C@H](N)C(=O)O; Thp = NC1(C(=O)O)CCOCC1; Aib = CC(C)(N)C(=O)O

In one assay the test system is IL-23 induced STAT3 signaling. Kind of assay: Inhibition of IL-23 induced STAT3 signaling in HEK-Blue IL-23 cells (SEAP reporter). The note with it: human IL-23 0.25 ng/ml, read-out: Inhibition of IL-23 induced pSTAT3 (IC50 nM). The assay is classed as cell-based. The text has this: HEK-Blue™ IL-23 cells (Invivogen) are designed for the detection of bioactive human (hIL-23) and murine IL-23 (mIL-23) by monitoring the activation of the STAT3 pathway. Binding of IL-23 to its receptor on the surface of HEK-Blue™ IL-23 cells triggers a signaling cascade leading to the activation of STAT3 and the subsequent production of secreted embryonic alkaline phosphatase (SEAP). This can be readily assessed using QUANTI-Blue™ Solution, a SEAP detection reagent.
HEK-Blue™ IL-23 cells were cultured as described by Invivogen.
On the first day of assay 10 μL of the HEK-Blue IL-23 cell suspension (final concentration: 10,000 cells/well) and 10 μl of serially diluted compound solutions were dispensed into a 384-well assay plate. After pre-incubation of the reaction mixtures at 37° C./5% CO2/95% humidity for 60 minutes, 10 μl of the humanIL-23 cytokine (final concentration: 0.25 ng/ml) was added to each well for the STAT3 signaling activation. The plate was incubated overnight at 37° C./5% CO2/95% humidity.
On the second day 20 μl per well of Quanti-Blue detection solution (prepared according to the manufacture instruction) was dispensed into a new 384-well plate and followed by the transfer of 5 μl supernatant of the overnight incubated cell/sample mixtures. After incubation of 45 min at room temperature signals were measured with PHERAstar (BMG) at OD 620-655 nm.
Dose response data were fitted with XLfit.
On to `COc1ccc(C[C@@H]2NC(=O)[C@H](CCCNC(=N)N)NC(=O)[C@H](CCC(N)=O)NC(=O)[C@H](Cc3c[nH]c4ccccc34)NC(=O)[C@H]([C@@H](C)O)NC(=O)[C@H](CC(N)=O)NC(=O)[C@H](NC(C)=O)CCCCNC(=O)C[C@@H](C(=O)N[C@@H](CC(N)=O)C(=O)N[C@@H](CC(N)=O)C(N)=O)NC(=O)[C@H](CCC(N)=O)NC(=O)[C@H](Cc3cccc4ccccc34)NC2=O)cc1` [compound 19] (Ac-[dK]NTWQRY(Me)[1Nal]QDNN-NH2; lactam 1-10), for which the IC50 was found to be 9600 nM.
With `CC(=O)N[C@H]1CCCNC(=O)CC[C@@H](C(=O)N[C@@H](CC(N)=O)C(=O)N[C@@H](CC(N)=O)C(N)=O)NC(=O)C(C)(C)NC(=O)[C@H](Cc2ccc3ccccc3c2)NC(=O)[C@H](Cc2ccc(OCCN)cc2)NC(=O)[C@H](CCCNC(=N)N)NC(=O)[C@H](CCC(N)=O)NC(=O)[C@H](Cc2c[nH]c3ccccc23)NC(=O)[C@H]([C@@H](C)O)NC(=O)[C@H](CC(N)=O)NC1=O` [compound 38] (Ac-[Orn]NTWQR[AEF][2Nal][Aib]ENN-NH2; lactam 1-10), the IC50 was found to be 1570 nM.
For the molecule `CC(=O)N[C@@H]1CCCCNC(=O)C[C@@H](C(=O)N[C@@H](CC(N)=O)C(=O)N[C@@H](CC(N)=O)C(N)=O)NC(=O)C(C)(C)NC(=O)[C@H](Cc2cccc3ccccc23)NC(=O)[C@H](Cc2ccc(O)cc2)NC(=O)[C@H](CCCNC(=N)N)NC(=O)[C@H](CCC(N)=O)NC(=O)[C@H](Cc2c[nH]c3ccccc23)NC(=O)[C@H]([C@@H](C)O)NC(=O)[C@H](CC(N)=O)NC1=O` [compound 14] (Ac-[dK]NTWQRY[1Nal][Aib]DNN-NH2; lactam 1-10), the IC50 was 1380 nM.
Still for that read-out and setting: next, `COc1ccc(C[C@@H]2NC(=O)[C@H](CCCNC(=N)N)NC(=O)[C@H](CCC(N)=O)NC(=O)[C@H](Cc3c[nH]c4ccccc34)NC(=O)[C@H]([C@@H](C)O)NC(=O)[C@H](CC(N)=O)NC(=O)[C@H](NC(C)=O)CCCCNC(=O)C[C@@H](C(=O)N[C@@H](CC(N)=O)C(N)=O)NC(=O)C(C)(C)NC(=O)[C@H](Cc3ccc4ccccc4c3)NC2=O)cc1` [compound 26] (Ac-[dK]NTWQRY(Me)[2Nal][Aib]DN-NH2; lactam 1-10): 8110 nM; `COc1ccc(C[C@@H]2NC(=O)[C@H](CCCNC(=N)N)NC(=O)[C@H](CCC(N)=O)NC(=O)[C@H](Cc3c[nH]c4ccccc34)NC(=O)[C@H]([C@@H](C)O)NC(=O)[C@H](CC(N)=O)NC(=O)[C@H](NC(C)=O)CCCCNC(=O)C[C@@H](C(=O)N[C@@H](CC(N)=O)C(=O)N[C@@H](CC(N)=O)C(N)=O)NC(=O)[C@H](CCCCNC(C)=O)NC(=O)[C@H](Cc3cccc4ccccc34)NC2=O)cc1` [compound 17] (Ac-[dK]NTWQRY(Me)[1Nal]K(Ac)DNN-NH2; lactam 1-10): 5650 nM.
Regarding `COc1ccc(C[C@@H]2NC(=O)[C@H](CCCNC(=N)N)NC(=O)[C@H](CCC(N)=O)NC(=O)[C@H](Cc3c[nH]c4ccccc34)NC(=O)[C@H]([C@@H](C)O)NC(=O)[C@H](CC(N)=O)NC(=O)[C@H](NC(C)=O)CCCCNC(=O)C[C@@H](C(=O)N[C@@H](CC(N)=O)C(=O)N[C@@H](CC(N)=O)C(N)=O)NC(=O)[C@H](CCCCNC(C)=O)NC(=O)[C@H](Cc3ccc4ccccc4c3)NC2=O)cc1` [compound 28] (Ac-[dK]NTWQRY(Me)[2Nal]K(Ac)DNN-NH2; lactam 1-10), the half-maximal inhibitory concentration (IC50) turned out to be 2210 nM.
The same measure, in the same setting: next, `COc1ccc(C[C@@H]2NC(=O)[C@H](CCCNC(=N)N)NC(=O)[C@H](CCC(N)=O)NC(=O)[C@H](Cc3c[nH]c4ccccc34)NC(=O)[C@H]([C@@H](C)O)NC(=O)[C@H](CC(N)=O)NC(=O)[C@H](NC(C)=O)CCCCNC(=O)C[C@@H](C(=O)N[C@@H](CC(N)=O)C(=O)N[C@@H](CC(N)=O)C(N)=O)NC(=O)[C@H](CCC(N)=O)NC(=O)[C@H](Cc3ccc4ccccc4c3)NC2=O)cc1` [compound 30] (Ac-[dK]NTWQRY(Me)[2Nal]QDNN-NH2; lactam 1-10): 6050 nM.

Another assay concerns the target T1, IL-23 receptor on the surface of …. In words: cell-based or functional assay.
Settings: not given
On to B1, for which the “Inhibition of IL-23 induced pSTAT3 (IC50 nM)” value came out at 432 nM.
Still for that read-out and setting: the value for B2 was 943 nM; that for B3 was 221 nM.
Still for that read-out and setting: next, B4: 850 nM; B5: 366 nM.

In general, IC50 refers to the concentration that inhibits the measured activity by half.
